A short description of the test: Inhibition of human 20S constitutive proteasome beta-2 using Bz-VGR-AMC as substrate after 60 mins by fluorescence assay.
`CC(C)C[C@H](NC(=O)[C@H](CC(C)C)NC(=O)[C@H](Cc1ccccc1)NC(=O)OC(C)(C)C)C(=O)N[C@@H](CCCNC(=N)N)CS(=O)(=O)F` showed an IC50 of 700 nM.

Regarding `CC(C)C[C@H](NC(=O)[C@H](CC(C)C)NC(=O)[C@@H](N)Cc1ccccc1)C(=O)N[C@@H](Cc1ccc(CN)cc1)CS(=O)(=O)F`, the IC50 amounted to 140 nM.

For the molecule `CC(C)C[C@H](NC(=O)[C@H](Cc1ccccc1)N=[N+]=[N-])C(=O)N[C@@H](CC(C)C)C(=O)N[C@@H](CCCNC(=N)N)CS(=O)(=O)F`, inhibition was half-maximal at 350 nM (IC50). This IC50 is about 2.5-fold higher than that of the molecule before.

On to `CC(C)C[C@H](NC(=O)[C@H](Cc1ccccc1)N=[N+]=[N-])C(=O)N[C@@H](CC(C)C)C(=O)N[C@@H](CCCCN)CS(=O)(=O)F`, for which the IC50 came to 700 nM.

`CC(=O)N[C@@H](Cc1ccccc1)C(=O)N[C@@H](CC(C)C)C(=O)N[C@@H](CC(C)C)C(=O)N[C@@H](Cc1ccc(CN)cc1)CS(=O)(=O)F` displayed an IC50 of 119 nM.

Molecule `CC(C)C[C@H](NC(=O)[C@H](CC(C)C)NC(=O)[C@H](Cc1ccccc1)NC(=O)OCc1ccccc1)C(=O)N[C@@H](CCCNC(=N)N)CS(=O)(=O)F` gave an IC50 of 150 nM.

`CC(C)C[C@H](NC(=O)OCc1ccccc1)C(=O)N[C@@H](CC(C)C)C(=O)N[C@@H](CC(C)C)C(=O)N[C@@H](CCCNC(=N)N)CS(=O)(=O)F` yielded a 50% inhibitory concentration (IC50) of 200 nM.

Molecule `CC(C)C[C@H](NC(=O)[C@H](CC(C)C)NC(=O)[C@@H](N)Cc1ccccc1)C(=O)N[C@@H](Cc1ccc(N)cc1)CS(=O)(=O)F` yielded an IC50 of 220 nM.

Molecule `CC(C)C[C@H](NC(=O)[C@H](CC(C)C)NC(=O)[C@@H](N)Cc1ccccc1)C(=O)N[C@@H](CCCNC(=N)N)CS(=O)(=O)F` returned an IC50 of 250 nM.

In turn, `CC(=O)N[C@@H](Cc1ccccc1)C(=O)N[C@@H](CC(C)C)C(=O)N[C@@H](CC(C)C)C(=O)N[C@@H](Cc1ccc(N)cc1)CS(=O)(=O)F` had a half-inhibitory concentration (IC50) of 2100 nM.

The molecule `CC(C)C[C@H](NC(=O)[C@H](CC(C)C)NC(=O)[C@@H](N)Cc1ccccc1)C(=O)N[C@@H](CCCCN)CS(=O)(=O)F` showed an IC50 of 470 nM.

For `CC(=O)N[C@@H](Cc1ccccc1)C(=O)N[C@@H](CC(C)C)C(=O)N[C@@H](CC(C)C)C(=O)N[C@@H](CCCNC(=N)N)CS(=O)(=O)F`, the IC50 came to 980 nM.

In the case of `CC(=O)N[C@@H](Cc1ccccc1)C(=O)N[C@@H](CC(C)C)C(=O)N[C@@H](CC(C)C)C(=O)N[C@@H](CCCCN)CS(=O)(=O)F`, the IC50 worked out at 1500 nM.

These data come from BindingDB's records for doi:10.1021/acs.jmedchem.8b00685 (University of Glasgow, 2018).
